Measured values reported in ChEMBL document CHEMBL1828557, “Biophysical and physicochemical methods differentiate highly ligand-efficient human D-amino acid oxidase inhibitors” (Eur J Med Chem, 2011).
In brackets after ≈: the same amount, converted by molar mass.

Experiments:
[1] = Ratio of drug level (0 to last) in brain to plasma in Swiss mouse at 10 mg/kg, po; assay type: ADME, organism-based; design: dose 10 mg/kg, route oral; settings: brain and plasma, read-out: BPR
D-amino-acid oxidase [2] = target: T1, D-amino-acid oxidase (Homo sapiens, UniProt P14920); assay: Inhibition of human DAAO
Target sequence in this assay (P14920 whole entry): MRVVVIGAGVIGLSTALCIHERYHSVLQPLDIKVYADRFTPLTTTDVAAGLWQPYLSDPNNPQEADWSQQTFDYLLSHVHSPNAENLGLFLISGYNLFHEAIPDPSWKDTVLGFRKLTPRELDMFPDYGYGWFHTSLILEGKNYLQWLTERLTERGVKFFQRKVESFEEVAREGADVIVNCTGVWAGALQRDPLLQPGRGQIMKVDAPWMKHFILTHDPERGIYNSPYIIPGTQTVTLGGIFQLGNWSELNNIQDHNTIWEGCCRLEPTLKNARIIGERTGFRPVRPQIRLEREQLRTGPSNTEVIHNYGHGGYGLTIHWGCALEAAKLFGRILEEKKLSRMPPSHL

[3] = Volume of distribution in Wistar rat plasma at 1 mg/kg, iv; assay type: ADME, organism-based; design: dose 1 mg/kg, route intravenous
[4] = Ratio of drug level (0 to last) in brain to plasma in Wistar rat at 10 mg/kg, po; assay type: ADME, organism-based; design: dose 10 mg/kg, route oral; settings: brain and plasma, read-out: BPR
D-amino-acid oxidase [5] = target: T1, D-amino-acid oxidase
Target sequence in this assay (P14920 whole entry, looked up): as the sequence (P14920 whole entry) above

[6] = Plasma clearance in Wistar rat plasma at 1 mg/kg, iv; assay type: ADME, organism-based; design: dose 1 mg/kg, route intravenous
[7] = Oral bioavailability (0 to last) in Swiss mouse plasma at 10 mg/kg; assay type: ADME, organism-based
[8] = Plasma clearance in Swiss mouse plasma at 1 mg/kg, iv; assay type: ADME, organism-based; design: dose 1 mg/kg, route intravenous
[9] = Cmax in Wistar rat brain at 10 mg/kg, po; assay type: ADME, organism-based; design: dose 10 mg/kg, route oral
Brain [10] = assay: AUC (0 to last) in Wistar rat brain at 10 mg/kg, po; assay type: ADME, organism-based; design: dose 10 mg/kg, route oral, time 0 - last; settings: in vivo
[11] = Cmax in Swiss mouse brain at 10 mg/kg, po; assay type: ADME, organism-based; design: dose 10 mg/kg, route oral
[12] = Thermodynamic solubility of the compound in phosphate buffer at pH 7.4 after 24 hrs by HPLC analysis; assay type: physicochemical; settings: read-out: Therm_solubility
[13] = Kinetic solubility of the compound in 0.01 M phosphate buffered saline at pH 7.4 assessed as maximum solubility after 2 hrs; assay type: physicochemical; settings: read-out: Kinetic_solubility
D-amino-acid oxidase [14] = target: T1, D-amino-acid oxidase; assay: Binding affinity to human recombinant DAAO by steady state study scintillation proximity assay
Target sequence in this assay (P14920 whole entry): as above

D-amino-acid oxidase [15] = target: T1, D-amino-acid oxidase; assay: Binding affinity to human recombinant DAAO by isothermal titration calorimeter analysis
Target sequence in this assay (P14920 whole entry): as above

[16] = Dissociation constant, pKa of the compound by dip probe absorption spectroscopy technique; assay type: physicochemical
[17] = Tmax in Wistar rat brain at 10 mg/kg, po; assay type: ADME, organism-based; design: dose 10 mg/kg, route oral
[18] = Oral bioavailability (0 to last) in Wistar rat plasma at 10 mg/kg; assay type: ADME, organism-based
[19] = Volume of distribution in Swiss mouse plasma at 1 mg/kg, iv; assay type: ADME, organism-based; design: dose 1 mg/kg, route intravenous
[20] = Terminal half life in Swiss mouse brain at 10 mg/kg, po; assay type: ADME, organism-based; design: dose 10 mg/kg, route oral; settings: read-out: beta t1/2 (converted)
[21] = Apparent permeability from apical to basolateral side of MDCK cells expressing MDR1 by LC-MS/MS analysis; assay type: ADME, cell-based, Canis lupus familiaris; settings: dog
D-amino-acid oxidase [22] = target: T1, D-amino-acid oxidase; assay: Inhibition of human recombinant DAAO expressed in Escherichia coli assessed as H2O2 production from D-serine degradation after 30 mins by fluorescence assay
Target sequence in this assay (P14920 whole entry): as above

[23] = Octanol-water partition coefficient, log P of the neutral compound by pH-metric method; assay type: physicochemical
D-amino-acid oxidase [24] = target: T1, D-amino-acid oxidase; assay: Binding affinity to human recombinant DAAO by kinetic study scintillation proximity assay
Target sequence in this assay (P14920 whole entry): as above

[25] = Terminal half life in Wistar rat brain at 10 mg/kg, po; assay type: ADME, organism-based; design: dose 10 mg/kg, route oral; settings: read-out: beta t1/2 (converted)
Brain [26] = assay: AUC (0 to last) in Swiss mouse brain at 10 mg/kg, po; assay type: ADME, organism-based; design: time 0 - last, dose 10 mg/kg, route oral; settings: in vivo
D-aspartate oxidase = target: T2, D-aspartate oxidase (Bos taurus, UniProt P31228); assay: Inhibition of bovine recombinant DASPO expressed in Escherichia coli preincubated for 15 mins by fluorescence assay
T2 sequence (P31228 whole entry): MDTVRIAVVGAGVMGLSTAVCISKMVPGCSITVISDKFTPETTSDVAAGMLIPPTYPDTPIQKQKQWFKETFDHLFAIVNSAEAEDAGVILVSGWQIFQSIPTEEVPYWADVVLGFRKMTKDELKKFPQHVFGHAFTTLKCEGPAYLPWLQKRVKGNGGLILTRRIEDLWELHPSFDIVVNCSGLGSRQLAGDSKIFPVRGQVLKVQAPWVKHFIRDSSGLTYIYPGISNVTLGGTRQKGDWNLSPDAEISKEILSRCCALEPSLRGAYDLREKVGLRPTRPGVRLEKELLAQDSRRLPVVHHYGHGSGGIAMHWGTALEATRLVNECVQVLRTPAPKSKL

[27] = Kinetic solubility of the compound in 0.01 M phosphate buffered saline at pH 7.4 assessed as minimum solubility after 2 hrs; assay type: physicochemical; settings: read-out: Kinetic_solubility
[28] = Tmax in Swiss mouse brain at 10 mg/kg, po; assay type: ADME, organism-based; design: dose 10 mg/kg, route oral
[29] = Apparent permeability across apical to basolateral side in human Caco2 cells by LC-MS/MS analysis; assay type: ADME, cell-based; settings: Caco-2
[30] = Intrinsic clearance in human liver microsomes; assay type: ADME, Microsome
[31] = target: Voltage-gated inwardly rectifying potassium channel KCNH2 (Homo sapiens, UniProt Q12809); assay: Inhibition of human ERG expressed in HEK293 cells by whole cell voltage patch clamp technique; assay type: cell-based
Chain of Voltage-gated inwardly rectifying potassium channel KCNH2 (Q12809 whole entry): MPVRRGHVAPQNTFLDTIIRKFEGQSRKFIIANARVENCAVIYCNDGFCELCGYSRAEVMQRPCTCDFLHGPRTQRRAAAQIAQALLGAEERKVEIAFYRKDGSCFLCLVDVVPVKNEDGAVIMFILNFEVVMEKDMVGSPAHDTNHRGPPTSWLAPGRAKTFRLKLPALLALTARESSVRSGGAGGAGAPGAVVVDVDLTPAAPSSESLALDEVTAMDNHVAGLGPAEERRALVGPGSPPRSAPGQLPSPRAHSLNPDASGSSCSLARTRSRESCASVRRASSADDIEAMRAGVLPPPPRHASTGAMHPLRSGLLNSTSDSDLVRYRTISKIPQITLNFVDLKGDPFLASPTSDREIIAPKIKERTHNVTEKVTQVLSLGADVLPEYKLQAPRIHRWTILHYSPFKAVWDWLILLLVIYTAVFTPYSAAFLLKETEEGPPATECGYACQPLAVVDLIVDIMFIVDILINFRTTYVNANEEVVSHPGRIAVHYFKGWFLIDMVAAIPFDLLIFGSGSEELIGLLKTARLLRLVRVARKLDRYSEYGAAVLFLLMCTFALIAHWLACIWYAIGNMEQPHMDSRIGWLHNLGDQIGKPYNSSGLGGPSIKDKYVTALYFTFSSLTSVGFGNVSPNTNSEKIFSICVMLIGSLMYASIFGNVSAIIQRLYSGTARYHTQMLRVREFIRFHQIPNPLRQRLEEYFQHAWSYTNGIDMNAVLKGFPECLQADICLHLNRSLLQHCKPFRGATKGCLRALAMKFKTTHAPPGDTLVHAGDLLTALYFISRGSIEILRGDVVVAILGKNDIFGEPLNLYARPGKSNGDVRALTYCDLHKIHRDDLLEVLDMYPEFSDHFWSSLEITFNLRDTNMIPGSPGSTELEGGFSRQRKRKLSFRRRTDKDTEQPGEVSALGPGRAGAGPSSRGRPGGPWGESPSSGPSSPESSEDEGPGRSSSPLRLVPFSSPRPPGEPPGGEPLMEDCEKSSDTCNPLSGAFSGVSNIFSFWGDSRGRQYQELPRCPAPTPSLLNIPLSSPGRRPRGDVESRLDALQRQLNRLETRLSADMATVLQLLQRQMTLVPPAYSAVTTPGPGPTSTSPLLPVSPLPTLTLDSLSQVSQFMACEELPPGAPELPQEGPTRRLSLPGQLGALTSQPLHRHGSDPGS

[32] = Oral bioavailability (0 to last) in Swiss mouse plasma at 30 mg/kg; assay type: ADME, organism-based
Brain [33] = assay: AUC (0 to last) in Wistar rat brain at 30 mg/kg, po; assay type: ADME, organism-based; design: time 0 - last, dose 30 mg/kg, route oral; settings: in vivo
[34] = Cmax in Wistar rat brain at 30 mg/kg, po; assay type: ADME, organism-based; design: dose 30 mg/kg, route oral
[35] = Volume of distribution in Wistar rat plasma at 10 mg/kg, iv; assay type: ADME, organism-based; design: dose 10 mg/kg, route intravenous
[36] = Cmax in Swiss mouse brain at 30 mg/kg, po; assay type: ADME, organism-based; design: dose 30 mg/kg, route oral
[37] = Volume of distribution in Swiss mouse plasma at 10 mg/kg, iv; assay type: ADME, organism-based; design: dose 10 mg/kg, route intravenous
[38] = Ratio of drug level (0 to last) in brain to plasma in Wistar rat at 30 mg/kg, po; assay type: ADME, organism-based; design: dose 30 mg/kg, route oral; settings: brain and plasma, read-out: BPR
[39] = Oral bioavailability (0 to last) in Wistar rat plasma at 30 mg/kg; assay type: ADME, organism-based
[40] = Tmax in Wistar rat brain at 30 mg/kg, po; assay type: ADME, organism-based; design: dose 30 mg/kg, route oral
Brain [41] = assay: AUC (0 to last) in Swiss mouse brain at 30 mg/kg, po; assay type: ADME, organism-based; design: time 0 - last, dose 30 mg/kg, route oral; settings: in vivo
[42] = Tmax in Swiss mouse brain at 30 mg/kg, po; assay type: ADME, organism-based; design: dose 30 mg/kg, route oral
[43] = Terminal half life in Swiss mouse brain at 30 mg/kg, po; assay type: ADME, organism-based; design: dose 30 mg/kg, route oral; settings: read-out: beta t1/2 (converted)
[44] = Terminal half life in Wistar rat brain at 30 mg/kg, po; assay type: ADME, organism-based; design: dose 30 mg/kg, route oral; settings: read-out: beta t1/2 (converted)
[45] = Plasma clearance in Swiss mouse plasma at 10 mg/kg, iv; assay type: ADME, organism-based; design: dose 10 mg/kg, route intravenous
[46] = Plasma clearance in Wistar rat plasma at 10 mg/kg, iv; assay type: ADME, organism-based; design: dose 10 mg/kg, route intravenous
[47] = Ratio of drug level (0 to last) in brain to plasma in Swiss mouse at 30 mg/kg, po; assay type: ADME, organism-based; design: dose 30 mg/kg, route oral; settings: brain and plasma, read-out: BPR

Structure (SMILES) | Kp [1] | Vd [3] | Kp [4] | T1/2 (D-amino-acid oxidase [5]) | clearance [6] | bioavailability [7] | clearance [8] | Cmax [9] | AUClast (Brain [10]) | Cmax [11] | solubility thermodynamic at 24 h [12] | solubility kinetic at 2 h [13] | pKa [16] | Tmax [17] | bioavailability [18] | Vd [19] | logP [23] | IC50 (D-aspartate oxidase) | solubility kinetic at 2 h [27] | Tmax [28] | also measured
Oc1noc2cc(Cl)ccc12 | 0.03 | 0.3 L/kg | 0.04 | 10 min | 5 mL/min/kg | 29% | 10 mL/min/kg | 319 ng/mL | 340 ng·h/mL | 228 ng/mL | 433 µM (≈ 73.4 µg/mL) | > 100 µM | 4.07 | 30 min | 28% | 0.2 L/kg | 2.68 | > 10000 nM | 100 µM (≈ 17 µg/mL) | 15 min | IC50 [31]: > 10000 nM; microsomal CLint [30]: 4.7 µL/min/mg; half-life [20]: 60 min; Papp A→B [21]: 75 ×10⁻⁶ cm/s; half-life [25]: 120 min; AUClast (Brain [26]): 139 ng·h/mL; Papp A→B [29]: 77 ×10⁻⁶ cm/s
O=c1[nH]c2ccc(F)c(Cl)c2cc1O | – | 0.3 L/kg | – | – | 28 mL/min/kg | 3% | 45 mL/min/kg | 17.9 ng/mL | – | 12.1 ng/mL | 71 µM (≈ 15.2 µg/mL) | 65 µM (≈ 13.9 µg/mL) | 7.33 | 30 min | 2% | 0.5 L/kg | 2.7 | > 10000 nM | 3 µM (≈ 0.641 µg/mL) | 15 min | microsomal CLint [30]: 183 µL/min/mg
Cc1cc(C(=O)O)n[nH]1 | – | – | – | – | – | – | – | – | – | – | > 460 µM | > 100 µM | 3.59 | – | – | – | 0.45 | > 10000 nM | 100 µM (≈ 12.6 µg/mL) | – | bioavailability [32]: 33%; IC50 (D-amino-acid oxidase [2]): 910 nM; AUClast (Brain [33]): 631 ng·h/mL; Cmax [34]: 112 ng/mL; Vd [35]: 3.5 L/kg; Cmax [36]: 359 ng/mL; Vd [37]: 0.4 L/kg; Kp [38]: 0.04; Kd (D-amino-acid oxidase [15]): 617 nM; bioavailability [39]: 97%; Tmax [40]: 60 min; AUClast (Brain [41]): 831 ng·h/mL; IC50 (D-amino-acid oxidase [22]): 473 nM; Tmax [42]: 30 min; half-life [43]: 60 min; Kd (D-amino-acid oxidase [24]): 900 nM; half-life [44]: 180 min; clearance [45]: 10 mL/min/kg; clearance [46]: 11 mL/min/kg; Kp [47]: 0.1
O=C(O)c1cc2occc2[nH]1 | 0.08 | 0.4 L/kg | 0.08 | 10 min | 4 mL/min/kg | 42% | 15 mL/min/kg | 889 ng/mL | 1520 ng·h/mL | 487 ng/mL | 428 µM (≈ 64.7 µg/mL) | > 100 µM | 4.09 | 30 min | 52% | 0.8 L/kg | 1.56 | > 10000 nM | 100 µM (≈ 15.1 µg/mL) | 15 min | IC50 [31]: > 10000 nM; half-life [20]: 30 min; half-life [25]: 120 min; AUClast (Brain [26]): 371 ng·h/mL

The next lines start with results.

Kp [1] | Vd [3] | Kp [4] | T1/2 (D-amino-acid oxidase [5]) | clearance [6] | bioavailability [7] | clearance [8] | Cmax [9] | AUClast (Brain [10]) | Cmax [11] | solubility thermodynamic at 24 h [12] | solubility kinetic at 2 h [13] | pKa [16] | Tmax [17] | bioavailability [18] | Vd [19] | logP [23] | IC50 (D-aspartate oxidase) | solubility kinetic at 2 h [27] | Tmax [28] | Structure (SMILES) | also measured
0.06 | 2.1 L/kg | 0.05 | 10 min | 9 mL/min/kg | 56% | 21 mL/min/kg | 648 ng/mL | 1940 ng·h/mL | 336 ng/mL | > 460 µM | > 100 µM | 3.88 | 60 min | 100% | 0.4 L/kg | 2.11 | > 10000 nM | 100 µM (≈ 16.7 µg/mL) | 15 min | O=C(O)c1cc2sccc2[nH]1 | IC50 (D-amino-acid oxidase [2]): 145 nM; Kd (D-amino-acid oxidase [14]): 33 nM; Kd (D-amino-acid oxidase [15]): 19 nM; half-life [20]: 60 min; Papp A→B [21]: 6 ×10⁻⁶ cm/s; IC50 (D-amino-acid oxidase [22]): 11.9 nM; Kd (D-amino-acid oxidase [24]): 6 nM; half-life [25]: 120 min; AUClast (Brain [26]): 302 ng·h/mL; Papp A→B [29]: 47 ×10⁻⁶ cm/s
– | 0.3 L/kg | – | > 120 min | 30 mL/min/kg | 0.65% | 44 mL/min/kg | – | – | 11.7 ng/mL | 31 µM (≈ 6.06 µg/mL) | 55 µM (≈ 10.8 µg/mL) | 7.6 | – | 1.4% | 0.3 L/kg | 2.57 | > 10000 nM | 17 µM (≈ 3.33 µg/mL) | 15 min | O=c1[nH]c2cccc(Cl)c2cc1O | microsomal CLint [30]: 308 µL/min/mg
